Results: patent publication US8241607B2, “Use of fructose-based compounds for the diagnosis of cancer” (priority 2005, dated 2012)

Tests used:
[1] = tested on: fructokinase-1 (FK-1) mRNA; experiment: RT-PCR of fructokinase-1 mRNA in MCF-7 cells; type: cell-based; conditions: MCF-7 grown in 5 mM fructose vs 2 mM and 5 mM glucose
Protocol: FIG. 7 depicts fructokinase-1 expression in accordance with an embodiment of the present invention. Breast cancer cells (MCF-7) express Fructokinase-1 (FK-1). RT-PCR was used to measure fructokinase-1 (FK-1) mRNA levels in MCF-7 cells following growth in 2 mM glucose, 5.5 mM glucose, or 5.5 mM fructose for 24 h, and in two human breast cancers (BT 1 & 2), and matched adjacent normal breast tissue (NB 1 & 2) from the same individual. […] Human liver, and exclusion of template served as positive and negative controls.
The inventors used RT-PCR analysis and specific primer pairs (SEQ ID NO: 1 (3′[…]), SEQ ID NO: 2 (5′[…])) to examine fructokinase-1 (FK-1) mRNA levels in glucose- or fructose-treated breast cancer cells. […] Also examined were FK-1 mRNA levels in two surgically resected human breast cancers, and paired adjacent normal breast tissue from the same individual. FK-1 mRNA was detectable in both normal and tumor tissue.

GLUT-5 mRNA = experiment: Real-time RT-PCR of GLUT-5 mRNA in PANC-1 cells; type: cell-based; conditions: 5.5 mM fructose, 24 h
Protocol: FIG. 22 depicts […] mRNA levels in pancreatic cancer cells in accordance with an embodiment of the present invention. Quantitative real-time RT-PCR was used to measure GLUT-5 mRNA levels in pancreatic cancer cells (PANC-1), following culture in 2 mM glucose, 5.5 mM glucose, or 5.5 mM fructose for 4 h and 24 h.
Brit J Biomed Sci 56(4): 285-292, 1999; Rogers S, Docherty S E, Slavin J L, Henderson and Best J D. Differential expression of GLUT12 in breast cancer and normal breast tissue. Cancer Letters 193(2): 225-233, 2003). […] Real-time RT-PCR was used to measure GLUT-5 mRNA expression following 2 mM, and 5.5 mM glucose-, and 5.5 mM fructose-treatment for 4 h, and 24 h respectively. GLUT-5 mRNA was expressed as the fold-change relative to GLUT-5 mRNA levels in 2 mM glucose-treated cells. As depicted in FIG. 22, at 4 h, GLUT-5 mRNA levels were low in both the 5.5 mM glucose-, and fructose-treated PANC-1 cells. […] This agrees with other studies which have reported fructose-induced GLUT-5 mRNA expression in colon cancer (74).

AP-1 = AP-1 probe binding assay on nuclear extracts of PANC-1 cells; type: cell-based; conditions: 5.5 mM fructose, 48 h
Protocol: FIG. 24 depicts luciferase activity of PANC-1 cells and primary culture of surgically resected pancreatic tumor cells in accordance with an embodiment of the present invention. PANC-1 pancreatic cancer cells and a primary culture of a surgically resected pancreatic tumor were incubated in 2 mM glucose, 5.5 mM glucose or 5.5 mM fructose for 48 h, after which nuclear extracts were incubated with a biotinylated AP-1 probe, and detected by an antibody-linked colorimetric method. *, p<0.01
In separate experiments PANC-1 cells, and primary cultures of surgically resected pancreatic tumors were incubated in 2 mM glucose, or 5.5 mM glucose or 5.5 mM fructose for 48 h, after which nuclear extracts were incubated with a biotinylated AP-1 probe in binding buffer. AP-1/AP1 probe complexes were next conjugated to a streptavidin-coated assay plate and detected using an AP-1 specific antibody, followed by binding of a horseradish-peroxidase conjugated secondary antibody, and detection by a colorimetric reagent.

[2] = Serum fructose in normal volunteers after two cans of soda (fructose dehydrogenase assay); type: in vivo, human; conditions: 3 normal volunteers
Protocol: FIG. 37 depicts fasting serum fructose and glucose levels in patients with pancreatic cancer and in normal volunteers in accordance with an embodiment of the present invention. (a) Fasting serum fructose and glucose levels in 6 patients with pancreatic cancer on the morning of resection. (b) Serum fructose, and glucose levels (Mean±SEM) in 3 normal volunteers after a 10 h fast, followed by ingestion of two cans of soda, containing 76 g of carbohydrate in the form of high fructose corn syrup (55% fructose, 45% glucose).
The normal circulating concentrations of fructose are unknown. […] Briefly, aliquots (20 μl) of fructose standards (0.1, 0.5, 1, 2, 4, 6, and 8 mM) or unknown serum samples were mixed with 5 μl of a stock solution (125 U/ml) of the enzyme fructose dehydrogenase (Sigma) in 175 μl citric acid (0.05 M) phosphate (0.09 M) buffer (pH 4.5), and 20 μl of 3-(4,5-dimethylthiazol-2yl)-2,5-diphenyltetrazolium bromide (MTT), and phenazine methosulfate (Promega), incubated for 30 minutes, after which absorbance at 570 nm was recorded in a 96-well spectrophotometer. […] As the first analysis, in accordance with institutional review board guidelines, the inventors obtained 32 serum samples randomly selected from anonymous inpatients at Cedars-Sinai Medical Center. The inventors also measured glucose in these same samples using standard glucose oxidase based methods. […]

normal pancreas tissue = experiment: Substrate oxidation with 13C tracers in primary culture of normal pancreas; type: cell-based, human; conditions: 5.5 mM, 72 h
Protocol: FIG. 31 depicts substrate oxidation in accordance with an embodiment of the present invention. Substrate oxidation in a primary culture of a normal pancreas (left), and a pancreatic cancer (right) following incubation in 2 mM, or 5 mM glucose, or 5 mM fructose for 72 h.
In separate studies, the inventors treated primary cultures of 4 pancreatic adenocarcinomas, and 3 normal pancreas tissues with the [1,2-^13C2]D-glucose-, or -fructose-tracers as before for 72 h, and carried out metabolic studies.

O=C(CO)[C@@H](O)[C@H](O)[C@H](O)CO [fructose]
FK-1 mRNA levels [1]: highest FK-1 levels | GLUT-5 mRNA levels relative to 2 mM glucose-treated cells (GLUT-5 mRNA): 1.5 fold higher | GLUT-5 mRNA levels relative to 5.5 mM glucose-treated cells (GLUT-5 mRNA): 1.75 fold higher | AP-1 luciferase reporter activity higher than in 5.5 mM glucose (AP-1): approximately 40% | mean serum fructose levels, peak ([2]; 30 minutes after two sodas): 17 mM | serum fructose levels ([2]; for the 2 hour duration of blood sampling): greater than 5 mM | substrate oxidation to CO2 (normal pancreas tissue): effectively oxidizes
